US20250003951A1, “METHOD AND COMPOSITION” (Oxford University Innovation Limited, priority 2021, published 2025)

Legend:
Format in all cases: cell-based, human
[1] = test system: donor-derived T cells taken from the patient post-allo-SCT; experiment: IFNγ ELISpot with HLA-blocking antibodies (HLA restriction); conditions: for Restricting HLA allele: candidate alleles separated by /
From the text: (§1) FIG. 3: Characterisation of GvL T cell responses. a) IFNγ ELISpot results following stimulation of post-transplant PB with GvL peptide+/−antibodies blocking HLA pan-class I (W6/32), pan-class II (Tü39), HLA-DR (L243), -DQ (Tü169) and -DP (B7/21). Negative control without peptide (DMSO). b) Flow cytometry with intracellular cytokine staining showing % T cells positive for IFNγ, TNFα, CD107a after treatment with peptide vs no treatment. […] The generic workflow established in Example 1 was used to identify the antigenic basis of GvL in further patients. In brief, mismatched peptides identified by in silico prediction and mass spectrometry for each patient were screened for their ability to activate donor-derived T cells taken from the patient post-allo-SCT, using IFNγ ELISpot assays. HLA restriction was investigated using IFNγ ELISpots with HLA-blocking antibodies. The nature and frequency of peptide-responsive T cells (i.e. cells producing cytokines (IFNγ, TNFα) and expression of the degranulation marker (CD107a) following peptide contact) were assessed by culturing post-transplant blood with peptide for 12 days and then stimulating with the peptide. Responses were assessed by flow cytometry.

[2] = test system: peptide-responsive T cells from post-transplant blood; experiment: Flow cytometry immunophenotyping of peptide-responsive T cells (IFNγ, TNFα, CD107a) after 12-day peptide culture and restimulation
From the text: as §1

[3] = test system: activated (IFNγ+) CD4+ or CD8+ T cells from post-transplant PBMCs; experiment: IFNγ catch FACS sort and single cell RNA sequencing with V(D)J enrichment to identify antigen-specific TCR clones; conditions: for Size of expanded T cell clone in activated (IFNγ+) repertoire after peptide stimulation and IFNγ catch: figure legends FIG. 8-22, single cell V(D)J sequencing
From the text: The following protocol was used to determine the sequence of TCRs recognising peptide 1 (SEQ ID NO: 1) or peptide 2 (SEQ ID NO: 2): • 1. Culture post-transplant blood with peptide (identified from IFNγ ELISpot screen) to enrich for antigen-specific T cells. • 2. After peptide stimulation, FACS sort activated (IFNγ+) T cells and control (IFNγ−) T cells. • 3. Single cell RNA sequencing with V (D) J enrichment. […]
The following protocol was used to determine the sequence of TCRs recognising the alloreactive peptide antigens set out in Table 3 above: • 1. Thaw post-transplant PBMCs from the patient from whom the peptide antigen was detected. Culture the cells with peptide, IL-2 and IL-7 for 12 days. • 2. Rest cells overnight. • 3. Stimulate cells with peptide for 6 hours. • 4. Stain cells for FACS using antibodies and IFNγ catch reagent. • 5. FACS sorting of activated (IFNγ+) CD4+ or CD8+ T cells and negative control (IFNγ−) populations. • 6. 10× Chromium single cell RNA sequencing with V (D) J enrichment.
T cells recognizing 18 of the 24 peptides set out in Table 3 (including PADI4) were detectable by FACS. Of these, 17 were detectable using IFNγ catch. Data are shown in Tables 4 and 5 below, and in FIGS. 8 to 23. In Table 5, clones were included that were (a) greater in size than the largest clone in the control repertoire, or (b)>10% of the repertoire, even if not larger than the largest clone in the control repertoire.

[4] = Table 3, IFNγ ELISpots with HLA-blocking antibodies
[5] = Table 3, post-transplant blood cultured with peptide 12 days, then restimulated

Sequence	HLA restriction [1, 4]	Restricting HLA allele ([1]; Table 3)	HLA restriction ([1]; Table 4)	CD4/CD8 responses [2, 5]	Frequency of response (% IFN* cells amongst CD4+ or CD8+ by FACS) [2, 5]	CD4/CD8 responses ([2]; Table 4)	Freq. of response (% IFNγ+ cells amongst CD4+ or CD8+ by FACS) ([2]; Table 4)	Size of expanded T cell clone in activated (IFNγ+) repertoire after peptide stimulation and IFNγ catch [3]	Clone size (percent repertoire) ([3]; CD8 T cells, expanded TCR clone 1 following peptide stimulation)
AGTGLASIIAATMARTVYCT (listed as Homo sapiens) [OX747-191]	HLA-DR	DRB1*04:04:01/DRB1*13:02:01/DRB3*03:01/DRB4*01:03	HLA-DR	Likely CD4	Not detected	Likely CD4	Not detected	–	–
APISLSSFFNVSTLEREVTD (listed as Homo sapiens) [OX747-185]	HLA-DR	DRB1*04:04:01/DRB1*13:02:01/DRB3*03:01/DRB4*01:03	HLA-DR	Likely CD4	Not detected	Likely CD4	Not detected	–	–
DRAEKFNRGIRKLGITPEGQ (listed as Homo sapiens) [OX628-308]	–	–	–	CD4	–	CD4	1.96%	76.1%	–
EKFNRGIRKLGITPEGQSYL (listed as Homo sapiens) [OX628-309]	–	–	–	CD4	–	CD4	1.06%	76.1%	–
GQKSPRFRRVSCFLRLGRST (listed as Homo sapiens) [OX802-321]	–	–	–	CD4	–	CD4	5.47%	–	–
ITVQTVYVQHLITFLDRPIQ (listed as Homo sapiens) [OX628-80]	HLA-DR	DRB1*03:01/DRB1*15:01/DRB3*01:01/04/DRB5*01:01:01	HLA-DR	CD4	–	CD4	2.36%	–	–
KALLKRLLKGMQKKRPSDVQ (listed as Homo sapiens) [OX993-414]	HLA-DR	DRB1*01:01/DRB1*11:01/DRB3*02:02/28/29N	HLA-DR	Likely CD4	–	CD4	0.4%	–	–
KVVGARGVGKSAFLQAFLGR (listed as Homo sapiens) [OX813-102]	Indeterminate	–	–	Indeterminate	Not detected	–	Not detected	–	–
LELGAGTGLASIIAATMART (listed as Homo sapiens) [OX747-190]	HLA-DR	DRB1*04:04:01/DRB1*13:02:01/DRB3*03:01/DRB4*01:03	HLA-DR	Likely CD4	Not detected	Likely CD4	Not detected	–	–
LGLIFALTLNRHKYPLNLYL (listed as Homo sapiens) [OX747-158]	–	–	–	CD4	–	CD4	0.45%	–	–
LGSLGLIFALTLNRHKYPLN (listed as Homo sapiens) [OX747-157]	–	–	–	CD4	–	CD4	0.325%	–	–
LHRDKALLKRLLKGMQKKRP (listed as Homo sapiens) [OX993-413]	HLA-DR	DRB1*01:01/DRB1*11:01/DRB3*02:02/28/29N	HLA-DR	Likely CD4	–	CD4	0.4%	–	–
MNYVSKRLPFAARLNTPMGP (listed as Homo sapiens) [OX1098-614]	Indeterminate	–	HLA-DP	Indeterminate	Not detected	Likely CD4	Not detected	–	–
NPLSPYLNVDPRYLVQDT (listed as Homo sapiens) [OX289-180]	Likely HLA-DR	DRB1*03:01/DRB1*07:01:01/DRB3*02:02/05/11/13/14/17-23/DRB4*01:01-05/07	HLA-DR	CD4	–	CD4	0.98%	–	–
PGLISMFSSSQELGAALAQL (listed as Homo sapiens) [OX628-564]	–	–	–	Indeterminate	Not detected	–	Not detected	–	–
PLYRQRYQFIKNLVDQHEPK (listed as Homo sapiens) [OX289-074]	–	–	–	CD4	–	CD4	0.24%	–	–
PPLYRQRYQFIKNLVDQHEP (listed as Homo sapiens) [OX289-073]	–	–	–	CD4	–	CD4	0.36%	–	–
QTVYVQHLITFLDRPIQMCC (listed as Homo sapiens) [OX628-81]	HLA-DR	DRB1*03:01/DRB1*15:01/DRB3*01:01/04/DRB5*01:01:01	HLA-DR	CD4	–	CD4	1.12%	–	–
RFRRVSCFLRLGRSTLLELE (listed as Homo sapiens) [OX802-322]	–	–	–	CD4	–	CD4	3.23%	–	–
TDRALQNKSISAFLVPMPTP (listed as Homo sapiens) [OX289-205]	–	–	–	CD4	–	CD4	0.89%	–	–
TQRSVLLCKVVGARGVGKSA (listed as Homo sapiens) [OX813-101]	Indeterminate	–	–	Indeterminate	Not detected	–	Not detected	–	–
VATFPVYTMVAIPIVCKD (listed as Homo sapiens) [OX289-067]	–	–	–	CD8	–	CD8	0.55%	–	81.1 percent repertoire
VPREYVRALNATKLERVFAK (listed as Homo sapiens) [OX628-305]	Indeterminate	–	–	Indeterminate	Not detected	–	Not detected	–	–
VRIALALKGIDYETVPINLI (listed as Homo sapiens) [OX885-560]	–	–	–	CD4	–	CD4	0.83%	96.5%	–
VSRPELLRESISAFLVPMPT (listed as Homo sapiens) [OX289-075]	–	–	–	CD4	–	CD4	1.33%	–	–
WRVRIALALKGIDYETVPIN (listed as Homo sapiens) [OX885-559]	–	–	–	CD4	–	CD4	0.83%	96.5%	–
